In paper PMC8532962 (Antibiotics, 2021):
Converted amounts (≈) assume the structure as drawn. Peptide text beside a SMILES is read from it.

Experiments:
[1] = tested on: Schizosaccharomyces pombe 972h-; assay: microbe, parasite or virus in culture; details: read-out: MIC Sp
[2] = tested on: Saccharomyces cerevisiae S288C; assay: microbe, parasite or virus in culture; details: 24 h, read-out: MIC Sc
Candida albicans SC5314 [3] = assay: microbe, parasite or virus in culture; details: SC5314, 24 h, read-out: MIC Ca
[4] = tested on: Histoplasma capsulatum G217B; assay: microbe, parasite or virus in culture; details: 96 h, read-out: MIC Hc
[5] = tested on: Aspergillus nidulans FGSC A4; assay: microbe, parasite or virus in culture; details: FGSCA4, 24 h, read-out: MIC An
[6] = tested on: Saccharomyces cerevisiae S288C; details: 24 h
[7] = tested on: Histoplasma capsulatum G217B; details: 96 h
tested bacteria = type: cell-based
[8] = tested on: Aspergillus nidulans FGSC A4; details: 24 h
[9] = tested on: Schizosaccharomyces pombe 972h-
Candida albicans SC5314 [10] = details: SC5314, 24 h
B. subtilis = assay: Antibacterial MIC, microbroth dilution; type: cell-based, Bacillus subtilis JH642; details: B. subtilis JH642; CLSI microbroth dilution, cation-adjusted Mueller-Hinton broth, 37 °C, OD600 every 15 min for 20 h, biological triplicate
Method: (§1) The antibacterial activity of the natural peptides and analogs was determined using the standard microbroth dilution method for determining minimal inhibitory concentration (MIC). […] The analog EMP-ER-D2K2 is the only analog that has some, but low, activity against B. subtilis with an MIC of 200 μg/mL.
(§2) Escherichia coli ATCC 25922 was obtained from ATCC and Pseudomonas aeruginosa ATCC 27853 was obtained from Carolina Biologicals. Staphylococcus aureus Newman was the S. aureus strain and the B. subtilis strain was JH642 (trpC2, pheA1).
(§3) Bacteria were grown on LB-agar plates (Fisher, Waltham, MA, USA) overnight at 37 °C, then stored at 4 °C until use. Four colonies were inoculated from the plate into 5 mL cation-adjusted Mueller-Hinton medium (Sigma) and grown to approximately OD600 = 1–2 at 37 °C in a shaking incubator at 250 rpm in preparation for antimicrobial activity testing. MICs were determined in cation-adjusted Mueller-Hinton broth using the microbroth dilution method from the Clinical and Laboratory Standards Institute. Growth was monitored by determining the optical density at 600 nm using a BioTek Synergy HTX multi-mode 96-well plate reader set to incubate at 37 °C and record every 15 min for 20 h. Each assay was performed in biological triplicate.

human erythrocytes [11] = assay: Hemolytic activity; type: cell-based; details: 1% human erythrocytes in PBS, 37 °C, 1 h, hemoglobin at 416 nm, 100% = 1% TritonX-100, biological triplicate
Method: Type O+ fresh human blood was purchased from Tennessee Blood Services Corp. (Memphis, TN, USA) in 10% citrate phosphate dextrose 10X phosphate saline solution (PBS) and EDTA (K2). Upon receiving the blood, it was washed using three volumes of 1X PBS + 5 mM glucose. The suspension was centrifuged at 1000× g for 10 min at 4 °C and the supernatant removed. The process was repeated two more times. The sedimented cells were resuspended in the same volume of 1X PBS + 5 mM glucose and stored at 4 °C until use.
[…] The cell suspensions were incubated at 37 °C for 1 h. The unlysed erythrocytes were removed by centrifugation (16,000× g) and the released hemoglobin was determined spectrophotometrically at 416 nm using a NanoDrop spectrophotometer (Thermo Fisher Scientific, Waltham, MA, USA). The control for no release of hemoglobin was a sample of 1% erythrocytes incubated in PBS without peptide. The control for 100% release of hemoglobin was a sample of 1% erythrocyte incubated in PBS with 1% TritonX-100. Each assay was performed in biological triplicate.

S. aureus = assay: Antibacterial MIC, microbroth dilution; type: cell-based; details: Staphylococcus aureus Newman; CLSI microbroth dilution, cation-adjusted Mueller-Hinton broth, 37 °C, OD600 every 15 min for 20 h, biological triplicate
Method: as §1, §2, §3

P. aeruginosa = assay: Antibacterial MIC, microbroth dilution; type: cell-based, Pseudomonas aeruginosa ATCC 27853; details: P. aeruginosa ATCC 27853; CLSI microbroth dilution, cation-adjusted Mueller-Hinton broth, 37 °C, OD600 every 15 min for 20 h, biological triplicate
Method: as §1, §2, §3

E. coli = assay: Antibacterial MIC, microbroth dilution; type: cell-based, Escherichia coli ATCC 25922; details: E. coli ATCC 25922; CLSI microbroth dilution, cation-adjusted Mueller-Hinton broth, 37 °C, OD600 every 15 min for 20 h, biological triplicate
Method: as §1, §2, §3

human erythrocytes [12] = details: cited from earlier work
Method: For EMP-ER, Konno reports 100% hemolysis for a concentration of 0.5 μg/mL and about 50% for 0.18 μg/mL [33].

Row | Structure (SMILES) | MIC [1] [µg/mL] | MIC [2] [µg/mL] | MIC (Candida albicans SC5314 [3]) [µg/mL] | MIC [4] [µg/mL] | MIC [5] [µg/mL] | MIC Sc [6] [µg/mL] | MIC Hc [7] [µg/mL] | antibacterial activity (tested bacteria) | MIC An [8] [µg/mL] | MIC Sp [9] [µg/mL] | MIC Ca (Candida albicans SC5314 [10]) [µg/mL] | MIC B. subtilis (B. subtilis) [µg/mL] | hemolysis (human erythrocytes [11]) [%] | MIC S. aureus (S. aureus) [µg/mL] | MIC P. aeruginosa (P. aeruginosa) [µg/mL] | MIC E. coli (E. coli) [µg/mL] | hemolysis (release) (human erythrocytes [12]; at concentrations of 0.5 μg/m) [%] | hemolysis potency relative to mastoparan (human erythrocytes [12])
1 | C[C@@H]1[C@H](O)[C@@H](C)/C=C/C=C/C=C/C=C/C=C/C=C/C=C/[C@H](O[C@@H]2O[C@H](C)[C@@H](O)[C@H](N)[C@@H]2O)C[C@@H]2O[C@](O)(C[C@@H](O)C[C@@H](O)[C@H](O)CC[C@@H](O)C[C@@H](O)CC(=O)O[C@H]1C)C[C@H](O)[C@H]2C(=O)O [Amphotericin B] | 0.25 (≈ 0.271 µM) | 1 (≈ 1.08 µM) | 0.5 (≈ 0.541 µM) | 0.5 (≈ 0.541 µM) | > 16 |  |  |  |  |  |  |  |  |  |  |  |  | 
2 | CC[C@H](C)[C@H](N)C(=O)N[C@@H](CC(N)=O)C(=O)N[C@@H](CCCCN)C(=O)N[C@@H](CC(C)C)C(=O)N[C@H](C(=O)N[C@H](C(=O)N[C@@H](CCCCN)C(=O)N[C@H](C(=O)NCC(=O)N[C@@H](CCCCN)C(=O)N[C@H](C(=O)N[C@H](C(=O)N[C@@H](CO)C(=O)N[C@@H](CC(C)C)C(N)=O)C(C)C)[C@@H](C)CC)C(C)C)[C@@H](C)CC)C(C)C [EMP-AF-KV] (H-INKLVIKVGKIVSL-NH2) |  |  |  |  |  | >256 | >256 | no antibacterial activity | >256 | >256 | >256 |  |  |  |  |  |  | 
3 | CC[C@H](C)[C@H](N)C(=O)N[C@@H](CC(N)=O)C(=O)N[C@@H](CC(C)C)C(=O)N[C@@H](CC(C)C)C(=O)N[C@@H](CCCCN)C(=O)N[C@H](C(=O)N[C@@H](C)C(=O)N[C@@H](CCCCN)C(=O)NCC(=O)N[C@H](C(=O)N[C@H](C(=O)N[C@@H](CCCCN)C(=O)N[C@@H](CO)C(=O)N[C@@H](CC(C)C)C(N)=O)[C@@H](C)CC)[C@@H](C)CC)[C@@H](C)CC [EMP-AF-OR] (H-INLLKIAKGIIKSL-NH2) |  |  |  |  |  | >256 | 128 (≈ 84 µM) |  | >256 | >256 | >256 | 10 | 100 | 25 | 200 | 25 | 75 | one-third
